Results: patent US20230339854A1, “Negative Allosteric Modulation of GluN3-Containing N-Methyl-D-Aspartate Receptors” (Emory University, priority 2020, published 2023)
Entries after “also recorded” stand apart in the source; their conditions may differ. Read-outs that look alike come from different tables or passages of the source.

Columns and labels:
[1] = tested on: GluN1/GluN2 NMDA receptors (GluN2A, GluN2B, GluN2C, GluN2D); test: Recombinant GluN1/GluN2 NMDA receptors in Xenopus oocytes (selectivity); assay type: cell-based, rat
[2] = target: T1, human GluN1^FA,TL/GluN3A receptors (Homo sapiens, UniProt Q8TCU5); test: Two-electrode voltage-clamp recordings of GluN1^FA,TL/GluN3A receptors in Xenopus oocytes; assay type: cell-based; conditions: for remaining activity at 30 µM: read-out: hGluN1^FA,TL/hGluN3A (100 × Idrug/Icontrol at 30 μM drug); for Slope: concentration-response curve; for Slope / minimum: 1000 μM glycine; for % Inhibition GluN1^FATL/GluN3A / Max Inhibition: fitted maximum at saturating test compound; for minimum: residual response at saturating concentration; for hGluN1^FA,TL/hGluN3A (100 × Idrug/Icontrol): @ 10 μM; for Max Inhibition: 100 × (1 − Idrug/Icontrol)
T1 construct: Human GluN3A (NP_597702.2) and rat GluN3B (NP_579842.2) were synthesized and subcloned into SP6 plasmids; expressed in transfected cells; host or cells: Xenopus laevis oocytes, cRNA injection (GluN1:GluN3 1:3)
How it was run: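 Human GluN1 with human GluN3A cRNA (1:3) in oocytes, recorded 2-5 days post-injection at 23° C, holding −40 mV, in Ba2+-containing recording solution pH 7.4. Compounds screened at 10 or 30 μM; those inhibiting >20% given concentration-response fits for IC50, Hill slope and residual inhibition.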

[3] = target: GluN1 (Homo sapiens, UniProt Q05586); conditions: read-out: EC50 (glycine binding GluN1); cited from earlier work
[4] = target: T2, rat GluN1-4a/GluN3B receptors (Rattus norvegicus, UniProt Q8VHN2); test: Two-electrode voltage-clamp recordings of GluN1-4a/GluN3B receptors in the presence of CGP-78608 (Xenopus oocytes); assay type: cell-based; conditions: @ 10 μM drug; 0.5 μM CGP-78608
T2 construct: Human GluN3A (NP_597702.2) and rat GluN3B (NP_579842.2) were synthesized and subcloned into SP6 plasmids; expressed in transfected cells; host or cells: Xenopus laevis oocytes, cRNA injection
Excerpt: (§1) cDNA encoding human wild-type (WT) GluN1-1a (GenBank accession numbers NP_015566, hereafter GluN1) and rat GluN1-1a (NP_058706.1) were synthesized and subcloned into pGEMHE plasmid; some experiments used the rat splice variant GluN1-4a (NP_001257531.1). Human GluN3A (NP_597702.2) and rat GluN3B (NP_579842.2) were synthesized and subcloned into SP6 plasmids. For most experiments, human GluN1 was co-expressed with human GluN3A, except for mutagenesis experiments where rat GluN1 was co-expressed with human GluN3A. Rat GluN1-4a was always expressed with rat GluN3B.
(§2) Defolliculated Xenopus laevis oocytes (stage V-VI) were obtained from Ecocyte BioScience (Austin, Texas), or prepared from commercially available Xenopus ovaries (Xenopus 1, Dexter, MI) as previously described (Hansen, et al., Mol. Pharmacol., 2013). A Drummond Nanoject II (Broomall, PA) was used to inject oocytes with cRNAs encoding GluN1 and GluN3 at a 1:3 ratio in RNase-free water. The cRNA was diluted as needed to give responses with amplitudes ranging between 200-2000 nA (0.2-10 ng total cRNA). Following cRNA injection, the oocytes were stored at 15-19° C. in Barth's solution that contained (in mM) 88 NaCl, 2.4 NaHCO3, 1 KCl, 0.33 Ca(NO3)2, 0.41 CaCl2), 0.82 MgSO4, and 5 Tris-HCl (pH 7.4 with NaOH), supplemented with 1 μg/ml streptomycin (Invitrogen, Carlsbad, CA) and 100 μg/ml gentamicin (Fisher Scientific, Pittsburgh, PA). Recordings were performed 2-5 days following cRNA microinjection at room temperature (23° C.) using a two-electrode voltage-clamp amplifier (OC725, Warner Instrument, Hamilton, CT). The signal was low-pass filtered at 10-20 Hz (4-pole, −3 dB Bessel) and digitized at the Nyquist rate using PCI-6025E or USB-6212 BNC data acquisition boards (National Instruments, Austin, TX) using EasyOocyte (http://www.easyoocyte.io/). Oocytes were placed in a custom-made chamber and continuously perfused (2.5 ml/min) with oocyte recording solution containing (in mM) 90 NaCl, 1 KCl, 10 HEPES, 0.5-1.0 BaCl2, and 0.01 EDTA (pH 7.4 with NaOH). Solutions were applied by gravity, and solution exchange was controlled through a rotary valve (Hamilton, Reno, NV). Recording electrodes were filled with 0.3-3.0 M KCl, and current responses were recorded at a holding potential of −40 mV.
(§3) Response (%)=(100−minimum)/(1+([concentration]/IC50)^nH)+minimum (2) • where nH is the Hill slope, IC50 is the concentration that produces a half-maximal effect, and minimum is the degree of residual inhibition at a saturating concentration of the negative allosteric modulator.
(§4) Selected compounds were also screened in the same assay as EU1180-438 to determine their effect on GluN3B.

[5] = target: T3, rat GluN1-4a/GluN3B receptors (Rattus norvegicus, UniProt P35439+Q8VHN2); test: as above; assay type: cell-based; conditions: 0.5 μM CGP-78608
T3 construct: Human GluN3A (NP_597702.2) and rat GluN3B (NP_579842.2) were synthesized and subcloned into SP6 plasmids; expressed in transfected cells; host or cells: Xenopus laevis oocytes, cRNA injection
Excerpt: as §1, §2, §3, §4

[6] = tested on: GluN1/GluN3 receptors; conditions: hydrochloride; cited from earlier work
[7] = pH 7.4, holding potential −40 mV, read-out: EC50, (95% CI) GluN1^FATL/GluN3A
[8] = responses activated by 1000 μM glycine, pH 7.4, read-out: IC50
[9] = hGluN1^FA,TL/hGluN3A, read-out: IC50
[10] = hGluN1^FA,TL/hGluN3A, read-out: IC50 (95% CI) GluN3A

T3 sequence (Q8VHN2 25-1002, other chains not shown): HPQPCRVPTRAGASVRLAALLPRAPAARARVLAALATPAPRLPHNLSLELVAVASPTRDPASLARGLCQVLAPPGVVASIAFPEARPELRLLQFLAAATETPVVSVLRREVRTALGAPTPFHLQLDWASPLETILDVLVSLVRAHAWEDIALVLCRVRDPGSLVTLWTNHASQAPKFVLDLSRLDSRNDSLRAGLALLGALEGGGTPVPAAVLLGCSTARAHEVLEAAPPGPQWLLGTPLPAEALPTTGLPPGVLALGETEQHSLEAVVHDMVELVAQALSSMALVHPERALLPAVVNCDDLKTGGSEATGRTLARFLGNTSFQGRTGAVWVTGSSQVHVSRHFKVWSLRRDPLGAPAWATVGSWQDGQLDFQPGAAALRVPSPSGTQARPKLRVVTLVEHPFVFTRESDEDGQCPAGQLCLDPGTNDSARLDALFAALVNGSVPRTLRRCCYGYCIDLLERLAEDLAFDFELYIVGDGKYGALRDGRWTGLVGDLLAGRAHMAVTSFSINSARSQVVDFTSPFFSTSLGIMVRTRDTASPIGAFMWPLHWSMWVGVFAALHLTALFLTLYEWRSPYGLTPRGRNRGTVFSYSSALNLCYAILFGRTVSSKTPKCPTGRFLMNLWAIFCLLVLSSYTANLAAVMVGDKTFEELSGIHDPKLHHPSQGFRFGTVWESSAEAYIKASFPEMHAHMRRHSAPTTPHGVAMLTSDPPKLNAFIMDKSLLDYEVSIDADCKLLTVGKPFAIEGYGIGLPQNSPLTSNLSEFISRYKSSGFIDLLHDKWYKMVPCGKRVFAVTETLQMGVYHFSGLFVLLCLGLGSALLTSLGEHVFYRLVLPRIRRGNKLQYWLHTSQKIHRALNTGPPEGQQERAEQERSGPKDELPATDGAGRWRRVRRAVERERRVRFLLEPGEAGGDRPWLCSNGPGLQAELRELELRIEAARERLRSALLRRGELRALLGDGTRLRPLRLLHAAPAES
T2 sequence (Q8VHN2 25-1002, other chains not shown): as above

## Cc1cccc(OCC(c2ccc(OC(C)C)cc2)N2Cc3cc(Cl)ccc3C2=O)n1 (stereo not drawn) [EU1180-510, 5-chloro-2-(1-(4-isopropoxyphenyl)-2-((6-methylpyridin-2-yl)oxy)ethyl)isoindolin-1-one]
[1]
  activity toward recombinant GluN1/GluN2 NMDA receptors (GluN2A-D): None of them showed any activity
[2]
  remaining activity at 30 µM: 94%

## NCC(=O)O [glycine]
[3]
  EC50: 0.1 to 1 µM

## COc1ccc(OCC(c2ccc(OC)cc2)N2Cc3ccccc3C2=O)cc1 (single isomer, unassigned; (-)) [(−) EU1180-438, 2-(2-(4-methoxyphenoxy)-1-(4-methoxyphenyl)ethyl)isoindolin-1-one]
[4]
  rat GluN1-4a/GluN3B + CGP (100 × Idrug/Icontrol): 70% @ 10 μM drug
[2]
  Slope: 1.4
  minimum: 16%
[2]; pH 7.4
  % Inhibition GluN1^FATL/GluN3A: 84%^a, (n = 20)
[2]; [7]
  IC50: 13 µM
[2]; [8]
  IC50: 13 µM

## COc1ccc(OCC(c2ccc(OC(C)C)cc2)N2Cc3ccccc3C2=O)cc1 (stereo not drawn) [EU1180-481, 2-(1-(4-isopropoxyphenyl)-2-(4-methoxyphenoxy)ethyl)isoindolin-1-one]
[1]; 30 μM
  activity toward recombinant GluN1/GluN2 NMDA receptors (GluN2A-D): no detectable activity
[2]
  hGluN1^FA,TL/hGluN3A (100 × Idrug/Icontrol): 57%
  Max Inhibition: 54%
[2]; [9]
  IC50: 3.12 µM
[2]; [10]
  IC50: 3.12 µM

## CCOc1ccc(OCC(c2ccc(OC(C)C)cc2)N2Cc3ccccc3C2=O)cc1 (stereo not drawn) [EU1180-499, 2-(2-(4-ethoxyphenoxy)-1-(4-isopropoxyphenyl)ethyl)isoindolin-1-one]
[1]
  activity toward recombinant GluN1/GluN2 NMDA receptors (GluN2A-D): None of them showed any activity
[2]
  hGluN1^FA,TL/hGluN3A (100 × Idrug/Icontrol): 67%
[2]; [9]
  IC50: 2.1 µM

## COc1ccc(OCC(c2ccc(OC)cc2)N2Cc3ccccc3C2=O)cc1 (single isomer, unassigned; (+)) [(+) EU1180-438, 2-(2-(4-methoxyphenoxy)-1-(4-methoxyphenyl)ethyl)isoindolin-1-one]
[4]
  rat GluN1-4a/GluN3B + CGP (100 × Idrug/Icontrol): 28% @ 10 μM drug
[2]
  Slope: 1.2
  minimum: 4%
[2]; pH 7.4
  % Inhibition GluN1^FATL/GluN3A: 96%^a, (n = 22)
[2]; [7]
  IC50: 7.1 µM
[2]; [8]
  IC50: 7.1 µM

## COc1ccc(OCC(c2ccc(OC)c(OC)c2)N2Cc3ccccc3C2=O)cc1 (stereo not drawn) [EU1180-494, 2-(1-(3,4-dimethoxyphenyl)-2-(4-methoxyphenoxy)ethyl)isoindolin-1-one]
[1]; 30 μM
  activity toward recombinant GluN1/GluN2 NMDA receptors (GluN2A-D): no detectable activity
[2]
  Max Inhibition: 3%

## COc1ccc(OCC(c2ccc(OC)cc2)N2CCc3ccccc3C2=O)cc1 (stereo not drawn) [EU1180-489, 2-(2-(4-methoxyphenoxy)-1-(4-methoxyphenyl)ethyl)-3,4-dihydroisoquinolin-1(2H)-one]
[5]
  IC50: 3.57 µM
[4]
  rat GluN1-4a/GluN3B + CGP (100 × Idrug/Icontrol): 31% @ 10 μM drug
[1]; 30 μM
  activity toward recombinant GluN1/GluN2 NMDA receptors (GluN2A-D): no detectable activity
[2]
  Max Inhibition: 44%
[2]; [10]
  IC50: 10.8 µM

## COc1ccc(OCC(c2ccccc2)N2Cc3ccccc3C2=O)cc1 (stereo not drawn) [EU1180-487, 2-(2-(4-methoxyphenoxy)-1-phenyl-ethyl)isoindolin-1-one]
[5]
  IC50: 6.49 µM
[4]
  rat GluN1-4a/GluN3B + CGP (100 × Idrug/Icontrol): 42% @ 10 μM drug
[1]; 30 μM
  activity toward recombinant GluN1/GluN2 NMDA receptors (GluN2A-D): no detectable activity
[2]
  Max Inhibition: 78%
[2]; [10]
  IC50: 10.8 µM

## C[C@@H](NCc1cc(Br)cc2[nH]c(=O)c(=O)[nH]c12)P(=O)(O)O.Cl [CGP-78608, [(1S)-1-[[(7-bromo-1,2,3,4-tetrahydro-2,3-dioxo-5-quinoxalinyl)methyl]amino]ethyl] phosphonic acid hydrochloride]
[6]
  effect on activation of GluN1/GluN3 receptors: dramatically enhance activation of GluN1/GluN3 receptors; also recorded: strongly enhance GluN1/GluN3A current responses

## Cc1cccc(OCC(c2ccc(OC(C)C)cc2)N2Cc3ccc(Cl)cc3C2=O)n1 (stereo not drawn) [EU1180-509, 6-chloro-2-(1-(4-isopropoxyphenyl)-2-((6-methylpyridin-2-yl)oxy)ethyl)isoindolin-1-one]
[1]
  activity toward recombinant GluN1/GluN2 NMDA receptors (GluN2A-D): None of them showed any activity
[2]
  hGluN1^FA,TL/hGluN3A (100 × Idrug/Icontrol): 81%

## Cc1cccc(OCC(c2ccc(OC(C)C)cc2)N2Cc3ccc(C(F)(F)F)cc3C2=O)n1 (stereo not drawn) [EU1180-511]
[1]
  activity toward recombinant GluN1/GluN2 NMDA receptors (GluN2A-D): None of them showed any activity
[2]
  remaining activity at 30 µM: 94%

## COc1ccc(OCC(c2ccccc2)N2CCc3ccccc3C2=O)cc1 (stereo not drawn) [EU1180-488, 2-(2-(4-methoxyphenoxy)-1-phenylethyl)-3,4-dihydroisoquinolin-1(2H)-one]
[5]
  IC50: 3.43 µM
[4]
  rat GluN1-4a/GluN3B + CGP (100 × Idrug/Icontrol): 38% @ 10 μM drug
[1]; 30 μM
  activity toward recombinant GluN1/GluN2 NMDA receptors (GluN2A-D): no detectable activity
[2]
  Max Inhibition: 88%
[2]; [10]
  IC50: 3.29 µM

## Cc1cccc(OCC(c2ccc(OC(C)C)cc2)N2Cc3ccccc3C2=O)n1 (stereo not drawn) [EU1180-508, 2-(1-(4-isopropoxyphenyl)-2-((6-methylpyridin-2-yl)oxy)ethyl)isoindolin-1-one]
[1]
  activity toward recombinant GluN1/GluN2 NMDA receptors (GluN2A-D): None of them showed any activity
[2]
  hGluN1^FA,TL/hGluN3A (100 × Idrug/Icontrol): 28%
[2]; [9]
  IC50: 3.93 µM

## CC(C)Oc1ccc(C(COc2ccc(OC(F)(F)F)cc2)N2Cc3cc(Cl)ccc3C2=O)cc1 (stereo not drawn) [EU1180-541, 5-chloro-2-(1-(4-isopropoxyphenyl)-2-(4-(trifluoromethoxy)phenoxy)ethyl)isoindolin-1-one]
[2]
  remaining activity at 30 µM: 100%

## COc1ccc(C(COc2cccc(C)n2)N2Cc3ccc(F)cc3C2=O)c(F)c1 (stereo not drawn) [EU1180-602, 6-Fluoro-2-(1-(2-fluoro-4-methoxyphenyl)-2-((6-methylpyridin-2-yl)oxy)ethyl)isoindolin-1-one]
[2]
  remaining activity at 30 µM: 73%

## COc1ccc(OCC(c2c(F)cc(OC)cc2F)N2Cc3ccccc3C2=O)cc1 (stereo not drawn) [EU1180-545, 2-(1-(2,6-Difluoro-4-methoxyphenyl)-2-(4-methoxyphenoxy)ethyl)isoindolin-1-one]
[2]
  remaining activity at 30 µM: 74%
